Laboratory results as given in US7223781B2 (Beiersdorf AG, priority 2001, dated 2007).
Like-named read-outs stand apart in the source and are kept apart here. Each block holds one compound with its values, some of them ahead of it.

Molecular target: T1, COX-1 (Sus scrofa, UniProt A0A287ANF9)
T1 construct: A platelet suspension obtained from pig's blood is preincubated with the test substance; endogenous in cells; host or cells: platelets from pig's blood
Experiment: In-vitro test for COX-1 inhibition: fluorimetric quantification of malonaldehyde (MDA) in A23187-activated pig platelet suspension
Type: cell-based
Experimental: In-vitro Test Procedure for the Determination of COX-1 Inhibition
The inhibition of the cyclooxygenase pathway is carried out by fluorimetric quantification of malonaldehyde (MA). This condenses in the acidic medium with twice the molar amount of thiobarbituric acid to give a red pigment dye, which has a fluorescence at λExcitation: 533 nm, λEmission: 550 nm.
A platelet suspension obtained from pig's blood is preincubated with the test substance for 10 min at 37° C. The concentration of the suspension should be 8×10^8 cells/ml. The arachidonic acid cascade is then activated by addition of the antibiotic calcium ionophore A23187 ([…]). After a further 10 min at 37° C., the reaction is stopped using a trichloroacetic acid solution. The samples are centrifuged and the supernatant is incubated with thiobarbituric acid for 30 min at 70° C. After cooling (30 min at room temperature), the samples are measured fluorimetrically at 533/550 nm and the IC50 values of the test compounds are determined therefrom by means of a calibration curve.

[1] = Table 5, heteroarylmethyl sulfides, pig platelets, read-out: MDA pIC50 (converted)
[2] = Table 9, alkylamides, pig platelets, read-out: MDA pIC50 (converted)
[3] = Table 7, arylamides, pig platelets, read-out: MDA IC50
[4] = Table 10, alkylsulfonamides, pig platelets, read-out: MDA pIC50 (converted)
[5] = Table 7, arylamides, pig platelets, read-out: MDA pIC50 (converted)
[6] = Table 5, heteroarylmethyl sulfides, pig platelets, read-out: MDA IC50
[7] = Table 2, sulfanylacetamides, pig platelets, read-out: MDA pIC50 (converted)

T1 sequence (A0A287ANF9 25-600): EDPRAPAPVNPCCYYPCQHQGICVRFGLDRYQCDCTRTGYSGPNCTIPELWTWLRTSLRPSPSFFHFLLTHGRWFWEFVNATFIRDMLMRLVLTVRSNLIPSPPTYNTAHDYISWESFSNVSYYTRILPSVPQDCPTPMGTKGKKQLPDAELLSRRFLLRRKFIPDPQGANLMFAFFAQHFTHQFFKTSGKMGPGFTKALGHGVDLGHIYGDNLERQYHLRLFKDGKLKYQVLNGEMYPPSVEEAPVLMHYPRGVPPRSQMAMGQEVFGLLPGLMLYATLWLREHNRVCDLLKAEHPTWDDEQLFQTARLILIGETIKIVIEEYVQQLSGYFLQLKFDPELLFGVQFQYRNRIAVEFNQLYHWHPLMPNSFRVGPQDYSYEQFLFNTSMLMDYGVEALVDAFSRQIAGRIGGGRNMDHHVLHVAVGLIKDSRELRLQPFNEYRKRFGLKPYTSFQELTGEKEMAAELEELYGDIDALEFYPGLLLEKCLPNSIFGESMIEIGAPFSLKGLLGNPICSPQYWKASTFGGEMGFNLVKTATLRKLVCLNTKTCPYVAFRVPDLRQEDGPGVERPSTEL

SMILES: COc1ccc(-c2nc(SCCNS(=O)(=O)c3ccc([N+](=O)[O-])cc3)[nH]c2-c2ccc(OC)cc2)cc1 [Compound T21, N^1-{2-[4,5-Bis(4-methoxyphenyl)-1H-imidazol-2-ylsufanyl]ethyl}-4-nitro-benzenesulfonamide]
MDA pIC50 (Table 8, arylsulfonamides, pig platelets): 6.96 M
IC50 (Table 8, arylsulfonamides, pig platelets, read-out: MDA IC50): 110 nM

SMILES: COc1ccc(-c2nc(SCCNC(=O)c3ccccc3Cl)[nH]c2-c2ccc(OC)cc2)cc1 [Compound T34, N^1-{2-[4,5-Bis(4-methoxyphenyl)-1H-imidazol-2-ylsufanyl]ethyl}-2-chlorobenzamide]
IC50 [3]: 62 nM

SMILES: COc1ccc(-c2nc(SCCNC(=O)c3ccc(F)cc3)[nH]c2-c2ccc(OC)cc2)cc1 [Compound T38, N^1-{2-[4,5-Bis(4-methoxyphenyl)-1H-imidazol-2-ylsufanyl]ethyl}-4-fluorobenzamide]
IC50 [5]: 251 nM

SMILES: COc1ccc(-c2nc(SCCNS(=O)(=O)c3c(C)cc(C)cc3C)[nH]c2-c2ccc(OC)cc2)cc1 [Compound T25, N^1-{2-[4,5-Bis(4-methoxyphenyl)-1H-imidazol-2-ylsufanyl]ethyl}-2,4,6-trimethylbenzenesulfonamide]
IC50 (Table 8, arylsulfonamides, pig platelets, read-out: MDA pIC50 (converted)): 324 nM

SMILES: COc1ccc(-c2nc(SCCNC(=O)c3ccccc3[N+](=O)[O-])[nH]c2-c2ccc(OC)cc2)cc1 [Compound T41, N^1-{2-[4,5-Bis(4-methoxyphenyl)-1H-imidazol-2-ylsulfanyl]ethyl}-2-nitro-benzamide]
IC50 [5]: 170 nM

SMILES: COc1ccc(-c2nc(SCC(=O)Nc3ccc(Cl)cc3)[nH]c2-c2ccc(OC)cc2)cc1 [Compound T10, N^1-(4-Chlorophenyl)-2-[4,5-bis(4-methoxyphenyl)-1H-imidazol-2-yl-sufanyl]acetamide]
IC50 [7]: 209 nM

SMILES: COc1ccc(-c2nc(SCCNC(=O)c3cccc(Cl)c3)[nH]c2-c2ccc(OC)cc2)cc1 [Compound T33, N^1-{2-[4,5-Bis(4-methoxyphenyl)-1H-imidazol-2-ylsufanyl]ethyl}-3-chlorobenzamide]
MDA pIC50 (Table 7, arylamides, pig platelets): 6.03 M
IC50 [3]: 930 nM

SMILES: COc1ccc(C(=O)NCCSc2nc(-c3ccc(OC)cc3)c(-c3ccc(OC)cc3)[nH]2)cc1 [Compound T45, N^1-{2-[4,5-Bis(4-methoxyphenyl)-1H-imidazol-2-ylsufanyl]ethyl}-4-methoxybenzamide]
IC50 [5]: 1000 nM

SMILES: COc1ccc(-c2nc(SCC(N)=O)[nH]c2-c2ccc(OC)cc2)cc1 [Compound T5, 2-[4,5-bis(4-methoxyphenyl)-1H-imidazol-2-ylsulfanyl]-acetamide]
IC50 (Table 2, sulfanylacetamides, pig platelets, read-out: MDA IC50): 450 nM

SMILES: COc1ccc(-c2nc(SCCN)[nH]c2-c2ccc(OC)cc2)cc1 [Compound T15, 2-[4,5-Bis(4-methoxyphenyl)-1H-imidazol-2-ylsufanyl]ethanamine]
IC50 (Table 3, amines, pig platelets, read-out: MDA pIC50 (converted)): 776 nM

SMILES: COc1ccc(-c2nc(SCCNC(=O)c3cc(Cl)cc(Cl)c3)[nH]c2-c2ccc(OC)cc2)cc1 [Compound T37, N^1-{2-[4,5-Bis(4-methoxyphenyl)-1H-imidazol-2-ylsulfanyl]ethyl}-3,5-dichlorobenzamide]
IC50 [3]: 520 nM

SMILES: COc1ccc(-c2nc(SCCNC(=O)c3ccc(C(F)(F)F)cc3)[nH]c2-c2ccc(OC)cc2)cc1 [Compound T42, N^1-{2-[4,5-Bis(4-methoxyphenyl)-1H-imidazol-2-ylsufanyl]ethyl}-4-(tri-fluoromethyl)benzamide]
IC50 [5]: 324 nM

SMILES: COc1ccc(-c2nc(SCC(=O)Nc3ccccc3)[nH]c2-c2ccc(OC)cc2)cc1 [Compound T9, N^1-Phenyl-2-[4,5-bis(4-methoxyphenyl)-1H-imidazol-2-ylsufanyl]acetamide]
IC50 [7]: 34.7 nM

Next, values leading:

MDA pIC50 (Table 15, N,N-acetamides, pig platelets): 5.28 M
IC50 (Table 15, N,N-acetamides, pig platelets, read-out: MDA IC50): 5200 nM
SMILES: CC(Sc1nc(-c2ccc(Cl)cc2)c(-c2ccc(Cl)cc2)n1C)C(=O)N(C)C (stereo not drawn) [Compound T88, 2-[4,5-Bis(4-chlorophenyl)-1-methyl-1H-imidazol-2-ylsufanyl]-1-(di-methylamino)propan-1-one]

IC50 [1]: 331 nM
SMILES: Clc1ccc(-c2nc(SCc3ccccn3)[nH]c2-c2ccc(Cl)cc2)cc1 [Compound T83, 2-[4,5-Bis(4-chlorophenyl)-1H-imidazol-2-ylsulfanylmethyl]pyridine]

IC50 [2]: 129 nM
SMILES: COc1ccc(-c2nc(SCCNC(=O)C(c3ccccc3)c3ccccc3)[nH]c2-c2ccc(OC)cc2)cc1 [Compound T62, N^1-{2-[4,5-Bis(4-methoxyphenyl)-1H-imidazol-2-ylsulfanyl]ethyl}-2,2-diphenylacetamide]

IC50 (Table 12, naphthylsulfonamides, pig platelets, read-out: MDA pIC50 (converted)): 129 nM
SMILES: COc1ccc(-c2nc(SCCNS(=O)(=O)c3ccc4ccccc4c3)[nH]c2-c2ccc(OC)cc2)cc1 [Compound T68, N^1-{2-[4,5-Bis(4-methoxyphenyl)-1H-imidazol-2-ylsulfanyl]ethyl}-naphthalene-2-sulfonamide]

IC50 (Table 9, alkylamides, pig platelets, read-out: MDA IC50): 47 nM
SMILES: CCC(=O)NCCSc1nc(-c2ccc(OC)cc2)c(-c2ccc(OC)cc2)[nH]1 [Compound T50]

IC50 (Table 6, N1-acetic acid derivatives, pig platelets, read-out: MDA IC50): 720 nM
SMILES: COc1ccc(-c2nc(SCc3ccncc3)n(CC(=O)O)c2-c2ccc(OC)cc2)cc1 [Compound T77, 2-[4,5-Bis(4-methoxyphenyl)-2-(4-pyridylmethylsulfanyl)-1H-imidazol-1-yl]-acetic acid]

IC50 [4]: 100 nM
SMILES: COc1ccc(-c2nc(SCCNS(=O)(=O)Cc3ccccc3)[nH]c2-c2ccc(OC)cc2)cc1 [Compound T66, N^1-{2-[4,5-Bis(4-methoxyphenyl)-1H-imidazol-2-ylsulfanyl]ethyl}-phenylmethanesulfonamide]

IC50 (Table 15, N,N-acetamides, pig platelets, read-out: MDA pIC50 (converted)): 1510 nM
SMILES: CN(C)C(=O)CSc1nc(-c2ccc(Cl)cc2)c(-c2ccc(Cl)cc2)[nH]1 [Compound T87, N^1N^1-Dimethyl-2-[4,5-bis(4-chlorophenyl)-1H-imidazol-2-ylsulfanyl]-acetamide]

IC50 [3]: 82 nM
SMILES: COc1ccc(-c2nc(SCCNC(=O)c3ccc(C(C)(C)C)cc3)[nH]c2-c2ccc(OC)cc2)cc1 [Compound T48, N^1-{2-[4,5-Bis(4-methoxyphenyl)-1H-imidazol-2-ylsufanyl]ethyl}-4-(tert-butyl)benzamide]

IC50 [6]: 90 nM
SMILES: COc1ccc(-c2nc(SCc3ccc4ccccc4n3)[nH]c2-c2ccc(OC)cc2)cc1 [Compound T72, 2-[4,5-Bis(4-methoxyphenyl)-1H-imidazol-2-ylsulfanylmethyl]quinoline]

IC50 [6]: 700 nM
SMILES: c1ccc(-c2nc(SCc3ccccn3)[nH]c2-c2ccccc2)cc1 [Compound T91, 2-[4,5-Diphenyl-1H-imidazol-2-ylsulfanylmethyl]pyridine]

IC50 [5]: 141 nM
SMILES: COc1ccc(-c2nc(SCCNC(=O)c3ccc(C)cc3)[nH]c2-c2ccc(OC)cc2)cc1 [Compound T47, N^1-{2-[4,5-Bis(4-methoxyphenyl)-1H-imidazol-2-ylsulfanyl]ethyl}4-methylbenzamide]

IC50 [5]: 2090 nM
SMILES: O=C(NCCSc1nc(-c2ccccc2)c(-c2ccccc2)[nH]1)c1ccccc1 [Compound T94]

IC50 [1]: 3.02 nM
IC50 (tables 1 to 17, read-out: IC50 values (inhibition of cyclooxygenase-1)): ~1 nM
SMILES: COc1ccc(-c2nc(SCc3cccnc3)[nH]c2-c2ccc(OC)cc2)cc1 [Compound T70, 3-[4,5-Bis(4-methoxyphenyl)-1H-imidazol-2-ylsulfanylmethyl]pyridine]

IC50 [4]: 38.9 nM
SMILES: CCS(=O)(=O)NCCSc1nc(-c2ccc(OC)cc2)c(-c2ccc(OC)cc2)[nH]1 [Compound T64, N^1-{2-[4,5-Bis(4-methoxyphenyl)-1H-imidazol-2-ylsulfanyl]ethyl}-ethanesulfonamide]

IC50 [2]: 182 nM
SMILES: COc1ccc(-c2nc(SCCNC(=O)C=Cc3ccccc3)[nH]c2-c2ccc(OC)cc2)cc1 [Compound T61, N^1-{2-[4,5-Bis(4-methoxyphenyl)-1H-imidazol-2-ylsulfanyl]ethyl}-3-phenylprop-2-enamide]
